Results published in patent US20050197364A1, “Amide compounds as ion channel ligands and uses thereof” (priority 2003, published 2005).

System: VR1 receptor
Test: High throughput calcium imaging assay (Fura2, Flex Station) of VR1 antagonists, pH 5.1 stimulus
Assay type: cell-based
Settings: 1 uM compound; inhibition of calcium ion influx induced by capsaicin stimulation

SMILES	% Inhibition @ 1 uM
CCC(C)(C)NC(=O)c1ccc(-c2ncccc2Cl)cc1 [Compound 53]	+ (compound exhibited 0-25% inhibition of calcium ion influx induced by capsaicin stimulation)
CCC1c2ccccc2-c2cc(NC(=O)c3ccc(-c4ncccc4Cl)cc3)ccc21 (stereo not shown) [Compound 55]	+ + (compound exhibited 25-50% inhibition of calcium ion influx induced by capsaicin stimulation)
O=C(Nc1ccc([N+](=O)[O-])cc1)c1ccc(-c2ncccc2Cl)cc1 [Compound 56]	+ + + + (compound exhibited 75% or greater inhibition of calcium ion influx induced by capsaicin stimulation)
O=C(Nc1ccncc1)c1ccc(-c2ncccc2Cl)cc1F [Compound 62]	+ (compound exhibited 0-25% inhibition of calcium ion influx induced by capsaicin stimulation)
O=C(Nc1cccnc1)c1ccc(-c2ncccc2Cl)cc1F [Compound 63]	+ (compound exhibited 0-25% inhibition of calcium ion influx induced by capsaicin stimulation)
CC(C)(NC(=O)c1ccc(-c2ncccc2Cl)cc1F)c1ccccc1 [Compound 66]	+ (compound exhibited 0-25% inhibition of calcium ion influx induced by capsaicin stimulation)
O=C(Nc1ccccc1O)c1ccc(-c2ncccc2Cl)cc1F [Compound 67]	+ (compound exhibited 0-25% inhibition of calcium ion influx induced by capsaicin stimulation)
CC(C)c1cccc(NC(=O)c2ccc(-c3ncccc3Cl)cc2F)c1 [Compound 69]	+ (compound exhibited 0-25% inhibition of calcium ion influx induced by capsaicin stimulation)
O=C(Nc1cccc(Cl)c1)c1ccc(-c2ncccc2Cl)cc1F [Compound 71]	+ (compound exhibited 0-25% inhibition of calcium ion influx induced by capsaicin stimulation)
COc1cccc(NC(=O)c2ccc(-c3ncccc3Cl)cc2F)c1 [Compound 74]	+ (compound exhibited 0-25% inhibition of calcium ion influx induced by capsaicin stimulation)
COc1ccc(NC(=O)c2ccc(-c3ncccc3Cl)cc2F)cc1Cl [Compound 79]	+ + (compound exhibited 25-50% inhibition of calcium ion influx induced by capsaicin stimulation)
O=C(Nc1cccc(Br)c1)c1ccc(-c2ncccc2Cl)cc1F [Compound 83]	+ + + + (compound exhibited 75% or greater inhibition of calcium ion influx induced by capsaicin stimulation)
N#Cc1cccc(NC(=O)c2ccc(-c3ncccc3Cl)cc2F)c1 [Compound 84]	+ + + + (compound exhibited 75% or greater inhibition of calcium ion influx induced by capsaicin stimulation)
CC(C)(C)c1ccc(NC(=O)c2ccc(-c3ncccc3Cl)cc2F)cc1 [Compound 86]	+ (compound exhibited 0-25% inhibition of calcium ion influx induced by capsaicin stimulation)
Cc1cccnc1NC(=O)c1ccc(-c2ncccc2Cl)cc1F [Compound 95]	+ (compound exhibited 0-25% inhibition of calcium ion influx induced by capsaicin stimulation)
O=C(Nc1ccc(C(F)(F)F)cn1)c1ccc(-c2ncccc2Cl)cc1F [Compound 97]	+ (compound exhibited 0-25% inhibition of calcium ion influx induced by capsaicin stimulation)
O=C(Nc1ncc(C(F)(F)F)cc1Cl)c1ccc(-c2ncccc2Cl)cc1F [Compound 98]	+ (compound exhibited 0-25% inhibition of calcium ion influx induced by capsaicin stimulation)
O=C(Nc1cccnc1Cl)c1ccc(-c2ncccc2Cl)cc1F [Compound 101]	+ (compound exhibited 0-25% inhibition of calcium ion influx induced by capsaicin stimulation)

SMILES	% Inhibition @ 1 uM
COc1ccc(NC(=O)c2ccc(-c3ncccc3Cl)cc2F)cn1 [Compound 103]	+ (compound exhibited 0-25% inhibition of calcium ion influx induced by capsaicin stimulation)
O=C(Nc1ccc2ncccc2c1)c1ccc(-c2ncccc2Cl)cc1F [Compound 107]	+ + (compound exhibited 25-50% inhibition of calcium ion influx induced by capsaicin stimulation)
O=C(Nc1ccc2ccccc2c1)c1ccc(-c2ncccc2Cl)cc1F [Compound 109]	+ + (compound exhibited 25-50% inhibition of calcium ion influx induced by capsaicin stimulation)
CC(C)(C)NC(=O)c1ccc(-c2ncccc2Cl)c(F)c1 [Compound 110]	+ (compound exhibited 0-25% inhibition of calcium ion influx induced by capsaicin stimulation)
O=C(Nc1ccc(F)cc1)c1ccc(-c2ncccc2Cl)c(F)c1 [Compound 114]	+ (compound exhibited 0-25% inhibition of calcium ion influx induced by capsaicin stimulation)
O=C(Nc1cccc(Cl)c1)c1ccc(-c2ncccc2Cl)c(F)c1 [Compound 116]	+ (compound exhibited 0-25% inhibition of calcium ion influx induced by capsaicin stimulation)
CCCc1ccccc1NC(=O)c1ccc(-c2ncccc2Cl)c(F)c1 [Compound 118]	+ (compound exhibited 0-25% inhibition of calcium ion influx induced by capsaicin stimulation)
COc1cccc(NC(=O)c2ccc(-c3ncccc3Cl)c(F)c2)c1 [Compound 119]	+ (compound exhibited 0-25% inhibition of calcium ion influx induced by capsaicin stimulation)
O=C(Nc1cccc(Cl)c1Cl)c1ccc(-c2ncccc2Cl)c(F)c1 [Compound 122]	+ + + + (compound exhibited 75% or greater inhibition of calcium ion influx induced by capsaicin stimulation)
N#Cc1cccc(NC(=O)c2ccc(-c3ncccc3Cl)c(F)c2)c1 [Compound 124]	+ + + + (compound exhibited 75% or greater inhibition of calcium ion influx induced by capsaicin stimulation)
CC(C)(C)c1ccc(NC(=O)c2ccc(-c3ncccc3Cl)c(F)c2)cc1 [Compound 125]	+ + + + (compound exhibited 75% or greater inhibition of calcium ion influx induced by capsaicin stimulation)
CCCCc1ccc(NC(=O)c2ccc(-c3ncccc3Cl)c(F)c2)cc1 [Compound 127]	+ + + + (compound exhibited 75% or greater inhibition of calcium ion influx induced by capsaicin stimulation)
Cc1ccc(NC(=O)c2ccc(-c3ncccc3Cl)c(F)c2)c(C)c1 [Compound 128]	+ + + + (compound exhibited 75% or greater inhibition of calcium ion influx induced by capsaicin stimulation)
O=C(Nc1ccc(F)cc1[N+](=O)[O-])c1ccc(-c2ncccc2Cl)c(F)c1 [Compound 132]	+ + + + (compound exhibited 75% or greater inhibition of calcium ion influx induced by capsaicin stimulation)
O=C(Nc1ccc(C(F)(F)F)cc1)c1ccc(-c2ncccc2Cl)c(F)c1 [Compound 135]	+ + (compound exhibited 25-50% inhibition of calcium ion influx induced by capsaicin stimulation)
Cc1cc(C)nc(NC(=O)c2ccc(-c3ncccc3Cl)c(F)c2)c1 [Compound 139]	+ (compound exhibited 0-25% inhibition of calcium ion influx induced by capsaicin stimulation)
O=C(Nc1ccncc1)c1ccc(-c2ncccc2Cl)c(F)c1 [Compound 140]	+ + + + (compound exhibited 75% or greater inhibition of calcium ion influx induced by capsaicin stimulation)

Same assay, conditions: 1 uM compound; inhibition of calcium ion influx induced by capsaicin stimulation; 1 µM

SMILES	% Inhibition @ 1 uM
O=C(Nc1ccc2ccccc2c1)c1ccc(-c2ncccc2Cl)cc1 [Compound 54]	+ (compound exhibited 0-25% inhibition of calcium ion influx induced by capsaicin stimulation)
O=C(Nc1ccc2ccccc2c1)c1ccc(-c2ncccc2Cl)cc1 [Compound 57]	+ + + + (compound exhibited 75% or greater inhibition of calcium ion influx induced by capsaicin stimulation)
